One may read the IC50 as the concentration that gives 50% inhibition.

Chain of TrkA (P04629 33-796): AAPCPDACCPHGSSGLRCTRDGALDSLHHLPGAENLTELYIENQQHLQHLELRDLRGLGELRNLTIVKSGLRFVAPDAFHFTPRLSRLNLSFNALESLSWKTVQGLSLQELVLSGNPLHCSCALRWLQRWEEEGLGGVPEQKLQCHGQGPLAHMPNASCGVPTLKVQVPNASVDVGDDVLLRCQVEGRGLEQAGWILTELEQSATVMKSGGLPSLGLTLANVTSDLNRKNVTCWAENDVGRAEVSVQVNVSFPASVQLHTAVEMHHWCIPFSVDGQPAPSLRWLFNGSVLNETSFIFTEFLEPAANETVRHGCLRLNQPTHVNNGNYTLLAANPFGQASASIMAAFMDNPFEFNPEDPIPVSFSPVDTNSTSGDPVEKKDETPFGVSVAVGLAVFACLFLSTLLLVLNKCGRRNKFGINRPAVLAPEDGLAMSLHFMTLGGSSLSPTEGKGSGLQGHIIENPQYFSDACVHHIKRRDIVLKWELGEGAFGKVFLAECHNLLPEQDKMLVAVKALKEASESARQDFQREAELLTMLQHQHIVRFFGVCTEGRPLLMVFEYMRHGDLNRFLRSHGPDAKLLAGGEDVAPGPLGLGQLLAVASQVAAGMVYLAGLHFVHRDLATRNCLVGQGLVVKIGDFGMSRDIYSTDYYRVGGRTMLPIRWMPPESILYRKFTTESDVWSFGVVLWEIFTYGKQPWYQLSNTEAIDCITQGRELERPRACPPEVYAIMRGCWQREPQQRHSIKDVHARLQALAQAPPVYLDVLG

The experiment concerns the target TrkA (Homo sapiens (Human), UniProt P04629). As to the kind of experiment: TrkA Omnia Assay. Format: biochemical. The following applies: averaged IC50; 20 nM enzyme, 500 μM ATP, 10 μM peptide substrate. The method in brief:
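Recombinant TrkA (20 nM) preincubated 10 min at ambient temperature with compound, then Omnia Tyr Peptide #4 (10 μM) and ATP (500 μM) added in 25 mM MOPS pH 7.5, 5 mM MgCl2, 0.005% Triton X-100. Fluorescence (ex 360/em 485 nm) followed continuously for 70 min; IC50 from initial rates by 4- or 5-parameter logistic fit.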
`COCCN1C[C@@H](NC(=O)Nc2c(Cl)c(OC[C@@H](C)O)nn2-c2ccccc2)[C@H](c2ccc(F)cc2)C1` [Example 374, 1-(4-chloro-3-((R)-2-hydroxypropoxy)-1-phenyl-1H-pyrazol-5-yl)-3-((3S,4R)-4-(4-fluorophenyl)-1-(2-methoxyethyl)pyrrolidin-3-yl)urea] showed a half-maximal inhibitory concentration (IC50) below 100 nM.
For `COCCN1C[C@@H](NC(=O)Nc2c(Br)c(OC[C@@H](C)O)nn2-c2ccccc2)[C@H](c2ccc(F)c(F)c2)C1` [Example 375, 1-(4-bromo-3-((R)-2-hydroxypropoxy)-1-phenyl-1H-pyrazol-5-yl)-3-((3S,4R)-4-(3,4-difluorophenyl)-1-(2-methoxyethyl)pyrrolidin-3-yl)urea] the value was below 100 nM; for `COCCN1C[C@@H](NC(=O)Nc2c(Br)c(OC[C@@H](C)O)nn2-c2ccccc2)[C@H](c2cc(F)cc(F)c2)C1` [Example 376, 1-(4-bromo-3-((R)-2-hydroxypropoxy)-1-phenyl-1H-pyrazol-5-yl)-3-((3S,4R)-4-(3,5-difluorophenyl)-1-(2-methoxyethyl)pyrrolidin-3-yl)urea], below 100 nM.
The compound `COCCN1C[C@@H](NC(=O)Nc2c(Br)c(OC[C@@H](C)O)nn2-c2ccccc2)[C@H](c2ccc(F)cc2)C1` [Example 377, 1-(4-bromo-3-((R)-2-hydroxypropoxy)-1-phenyl-1H-pyrazol-5-yl)-3-((3S,4R)-4-(4-fluorophenyl)-1-(2-methoxyethyl)pyrrolidin-3-yl)urea] came in with a concentration for half-maximal inhibition (IC50) below 100 nM.
For `CC[C@@H](O)COc1nn(-c2ccccc2)c(NC(=O)N[C@@H]2CN(CCOC)C[C@H]2c2cc(F)cc(F)c2)c1C` [Example 378, 1-((3S,4R)-4-(3,5-difluorophenyl)-1-(2-methoxyethyl)pyrrolidin-3-yl)-3-(3-((R)-2-hydroxybutoxy)-4-methyl-1-phenyl-1H-pyrazol-5-yl)urea] the value was below 100 nM; for `CC[C@@H](O)COc1nn(-c2ccccc2)c(NC(=O)N[C@@H]2CN(CCOC)C[C@H]2c2ccc(F)cc2)c1C` [Example 379, 1-((3S,4R)-4-(4-fluorophenyl)-1-(2-methoxyethyl)pyrrolidin-3-yl)-3-(3-((R)-2-hydroxybutoxy)-4-methyl-1-phenyl-1H-pyrazol-5-yl)urea], below 100 nM.
For `CC[C@@H](O)COc1nn(-c2ccccc2)c(NC(=O)N[C@@H]2CN(CCOC)C[C@H]2c2ccc(F)c(F)c2)c1C` [Example 380, 1-((3S,4R)-4-(3,4-difluorophenyl)-1-(2-methoxyethyl)pyrrolidin-3-yl)-3-(3-((R)-2-hydroxybutoxy)-4-methyl-1-phenyl-1H-pyrazol-5-yl)urea] the value was below 100 nM.
`CCOC(=O)c1nn(-c2ccccc2)c(NC(=O)N[C@@H]2CN(CCOC)C[C@H]2c2ccc(F)c(F)c2)c1Br` [Example 381, ethyl 4-bromo-5-(3-((3S,4R)-4-(3,4-difluorophenyl)-1-(2-methoxyethyl)pyrrolidin-3-yl)ureido)-1-phenyl-1H-pyrazole-3-carboxylate] displayed an IC50 below 100 nM.
As for `COCCN1C[C@@H](NC(=O)Nc2c(C)c(-c3cnn(CCOC)c3)nn2-c2ccccc2)[C@H](c2ccc(F)cc2)C1` [Example 382, 1-((3S,4R)-4-(4-fluorophenyl)-1-(2-methoxyethyl)pyrrolidin-3-yl)-3-(1′-(2-methoxyethyl)-4-methyl-1-phenyl-1H,1′H-[3,4′-bipyrazol]-5-yl)urea], the IC50 was below 100 nM.
For `COCCN1C[C@@H](NC(=O)Nc2c(C)c(-c3cnn(CCOC)c3)nn2-c2ccccc2)[C@H](c2cccc(F)c2)C1` [Example 383, 1-((3S,4R)-4-(3-fluorophenyl)-1-(2-methoxyethyl)pyrrolidin-3-yl)-3-(1′-(2-methoxyethyl)-4-methyl-1-phenyl-1H,1′H-[3,4′-bipyrazol]-5-yl)urea] the value was below 100 nM; for `COCCN1C[C@@H](NC(=O)Nc2c(C)c(-c3cnn(C)n3)nn2-c2ccccc2)[C@H](c2cccc(F)c2)C1` [Example 384, 1-((3S,4R)-4-(3-fluorophenyl)-1-(2-methoxyethyl)pyrrolidin-3-yl)-3-(4-methyl-3-(2-methyl-2H-1,2,3-triazol-4-yl)-1-phenyl-1H-pyrazol-5-yl)urea], below 100 nM; for `COCCN1C[C@@H](NC(=O)Nc2c(C)c(-c3cnn(C)n3)nn2-c2ccccc2)[C@H](c2ccc(F)cc2)C1` [Example 385, 1-((3S,4R)-4-(4-fluorophenyl)-1-(2-methoxyethyl)pyrrolidin-3-yl)-3-(4-methyl-3-(2-methyl-2H-1,2,3-triazol-4-yl)-1-phenyl-1H-pyrazol-5-yl)urea], below 100 nM.
With `COCCN1C[C@@H](NC(=O)Nc2c(C)c(OCCN3CCOCC3)nn2-c2ccccc2)[C@H](c2ccc(F)c(F)c2)C1` [Example 386, 1-((3S,4R)-4-(3,4-difluorophenyl)-1-(2-methoxyethyl)pyrrolidin-3-yl)-3-(4-methyl-3-(2-morpholinoethoxy)-1-phenyl-1H-pyrazol-5-yl)urea] the figure was below 100 nM; with `COCCN1C[C@@H](NC(=O)Nc2c(C)c(OCCN3C(=O)c4ccccc4C3=O)nn2-c2ccccc2)[C@H](c2ccc(F)c(F)c2)C1` [Example 387, 1-((3S,4R)-4-(3,4-difluorophenyl)-1-(2-methoxyethyl)pyrrolidin-3-yl)-3-(3-(2-(1,3-dioxoisoindolin-2-yl)ethoxy)-4-methyl-1-phenyl-1H-pyrazol-5-yl)urea], below 100 nM; with `COCCN1C[C@@H](NC(=O)Nc2c(C)c(OCCN3CCN(C(=O)OC(C)(C)C)CC3)nn2-c2ccccc2)[C@H](c2ccc(F)c(F)c2)C1` [Example 388, tert-butyl 4-(2-((5-(3-((3S,4R)-4-(3,4-difluorophenyl)-1-(2-methoxyethyl)pyrrolidin-3-yl)ureido)-4-methyl-1-phenyl-1H-pyrazol-3-yl)oxy)ethyl)piperazine-1-carboxylate], below 100 nM.
The compound `COCCN1C[C@@H](NC(=O)Nc2c3ccccc3nn2-c2ccccc2)[C@H](c2ccccc2)C1` [Example 389] displayed an IC50 below 100 nM.
For `COCCN1C[C@@H](NC(=O)Nc2c3ccccc3nn2-c2ccccc2)[C@H](c2ccc(F)c(F)c2)C1` [Example 390, 1-((3S,4R)-4-(3,4-difluorophenyl)-1-(2-methoxyethyl)pyrrolidin-3-yl)-3-(2-phenyl-2H-indazol-3-yl)urea] the value was below 100 nM; for `COCCN1C[C@@H](NC(=O)Nc2c(C)c(OCc3ncn(C)n3)nn2-c2ccccc2)[C@H](c2ccc(F)c(F)c2)C1` [Example 391, 1-((3S,4R)-4-(3,4-difluorophenyl)-1-(2-methoxyethyl)pyrrolidin-3-yl)-3-(4-methyl-3-((1-methyl-1H-1,2,4-triazol-3-yl)methoxy)-1-phenyl-1H-pyrazol-5-yl)urea], below 100 nM.
For `COCCN1C[C@@H](NC(=O)Nc2c(C)c(OC[C@@H]3COC(C)(C)O3)nn2-c2ccccc2)[C@H](c2cc(F)cc(F)c2)C1` [Example 392, 1-((3S,4R)-4-(3,5-difluorophenyl)-1-(2-methoxyethyl)pyrrolidin-3-yl)-3-(3-(((R)-2,2-dimethyl-1,3-dioxolan-4-yl)methoxy)-4-methyl-1-phenyl-1H-pyrazol-5-yl)urea] the value was below 100 nM.
For `COCCN1C[C@@H](NC(=O)Nc2c(C)c(OC[C@H]3COC(C)(C)O3)nn2-c2ccccc2)[C@H](c2cc(F)cc(F)c2)C1` [Example 393, 1-((3S,4R)-4-(3,5-difluorophenyl)-1-(2-methoxyethyl)pyrrolidin-3-yl)-3-(3-(((S)-2,2-dimethyl-1,3-dioxolan-4-yl)methoxy)-4-methyl-1-phenyl-1H-pyrazol-5-yl)urea] the value was below 100 nM; for `CCOc1nn(-c2cnccn2)c(NC(=O)N[C@@H]2CN(CCOC)C[C@H]2c2ccc(F)c(F)c2)c1C` [Example 394, 1-((3S,4R)-4-(3,4-difluorophenyl)-1-(2-methoxyethyl)pyrrolidin-3-yl)-3-(3-ethoxy-4-methyl-1-(pyrazin-2-yl)-1H-pyrazol-5-yl)urea], 100 to 1000 nM; for `COCCN1C[C@@H](NC(=O)Nc2c3c(nn2-c2ccnnc2)CCC3)[C@H](c2ccc(F)c(F)c2)C1` [Example 395, 1-((3S,4R)-4-(3,4-difluorophenyl)-1-(2-methoxyethyl)pyrrolidin-3-yl)-3-(2-(pyridazin-4-yl)-2,4,5,6-tetrahydrocyclopenta[c]pyrazol-3-yl)urea], 100 to 1000 nM.
On to `COCCN1C[C@@H](NC(=O)Nc2c(C)c(OC(=O)N(C)C)nn2-c2ccccc2)[C@H](c2ccc(F)c(F)c2)C1` [Example 396, 5-(3-((3S,4R)-4-(3,4-difluorophenyl)-1-(2-methoxyethyl)pyrrolidin-3-yl)ureido)-4-methyl-1-phenyl-1H-pyrazol-3-yl dimethylcarbamate], for which the IC50 was below 100 nM.
With `COCCN1C[C@@H](NC(=O)Nc2c(C)c(OC(=O)N3CCOCC3)nn2-c2ccccc2)[C@H](c2ccc(F)c(F)c2)C1` [Example 397, 5-(3-((3S,4R)-4-(3,4-difluorophenyl)-1-(2-methoxyethyl)pyrrolidin-3-yl)ureido)-4-methyl-1-phenyl-1H-pyrazol-3-yl morpholine-4-carboxylate] the figure was below 100 nM.
For `COCCN1C[C@@H](NC(=O)Nc2c(C)c(OC[C@H]3COC(C)(C)O3)nn2-c2ccccc2)[C@H](c2cc(F)c(F)c(F)c2)C1` [Example 398, 1-(3-(((S)-2,2-dimethyl-1,3-dioxolan-4-yl)methoxy)-4-methyl-1-phenyl-1H-pyrazol-5-yl)-3-((3S,4R)-1-(2-methoxyethyl)-4-(3,4,5-trifluorophenyl)pyrrolidin-3-yl)urea] the value was below 100 nM; for `COCCN1C[C@@H](NC(=O)Nc2c(C)c(OC[C@@H]3COC(C)(C)O3)nn2-c2ccccc2)[C@H](c2cc(F)c(F)c(F)c2)C1` [Example 399, 1-(3-(((R)-2,2-dimethyl-1,3-dioxolan-4-yl)methoxy)-4-methyl-1-phenyl-1H-pyrazol-5-yl)-3-((3S,4R)-1-(2-methoxyethyl)-4-(3,4,5-trifluorophenyl)pyrrolidin-3-yl)urea], below 100 nM.

The record behind these values is US10323022B2, “Pyrrolidinyl urea, pyrrolidinyl thiourea and pyrrolidinyl guanidine compounds as TrkA kinase inhibitors” (Array BioPharma Inc., priority 2011, dated 2019).
